molecular target: T1, human PPARα (Homo sapiens, UniProt Q07869); assay: Reporter gene transactivation, hPPAR-GAL4 alpha; assay type: cell-based; conditions: transfected Cos-7 cells, Gal-4 luciferase reporter, 24 hours treatment
T1 construct: expressed in transfected cells; host or cells: Cos-7 cells (ATCC, CRL-1651)
T1 sequence (Q07869 239-466 limits assumed): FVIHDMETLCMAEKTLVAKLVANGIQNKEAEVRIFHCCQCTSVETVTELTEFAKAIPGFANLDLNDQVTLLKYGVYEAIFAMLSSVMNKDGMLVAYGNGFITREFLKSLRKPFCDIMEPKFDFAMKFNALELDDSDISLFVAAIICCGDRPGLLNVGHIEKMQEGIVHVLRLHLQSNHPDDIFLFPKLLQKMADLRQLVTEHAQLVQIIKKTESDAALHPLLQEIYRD

| Compound | EC50 |
| --- | --- |
| CCCCn1c(=O)c(OCCc2ccccc2OC(C)(C)C(=O)OCC)nn(C)c1=O [Example 1, Ethyl 2-{2-[2-(4-butyl-2-methyl-3,5-dioxo-2,3,4,5-tetrahydro-[1,2,4]triazin-6-yloxy)-ethyl]-phenoxy}-2-methyl-propionate] | 3 to 10 µM |
| CCOC(=O)C(C)(C)Oc1cccc(CCOc2nn(C)c(=O)n(CCCC(F)(F)F)c2=O)c1 [Example 3, Ethyl 2-methyl-2-(3-{2-[2-methyl-3,5-dioxo-4-(4,4,4-trifluoro-butyl)-2,3,4,5-tetrahydro-[1,2,4]triazin-6-yloxy]-ethyl}-phenoxy)-propionate] | ~3 µM |
| CCOC(=O)C(C)(C)Oc1cccc(CCCOc2nn(CCCC(F)(F)F)c(=O)n(C)c2=O)c1 [Example 4, Ethyl 2-methyl-2-(3-{3-[4-methyl-3,5-dioxo-2-(4,4,4-trifluoro-butyl)-2,3,4,5-tetrahydro-[1,2,4]triazin-6-yloxy]-propyl}-phenoxy)-propionate] | > 10 µM |
| CCOC(=O)C(C)(C)Oc1cccc(CCCOc2nn(C)c(=O)n(CCCC(F)(F)F)c2=O)c1 [Example 6, Ethyl 2-methyl-2-(3-{3-[2-methyl-3,5-dioxo-4-(4,4,4-trifluoro-butyl)-2,3,4,5-tetrahydro-[1,2,4]triazin-6-yloxy]-propyl}-phenoxy)-propionate] | ~0.3 µM |
| CCOC(=O)C(C)(C)Oc1ccc(COc2nn(C)c(=O)n(CCCC(F)(F)F)c2=O)cc1 [Example 21, Ethyl 2-methyl-2-{4-[2-methyl-3,5-dioxo-4-(4,4,4-trifluoro-butyl)-2,3,4,5-tetrahydro-[1,2,4]triazin-6-yloxymethyl]-phenoxy}-propionate] | 3 to 10 µM |
| CCCCCCCn1c(=O)c(OCc2ccc(OC(C)(C)C(=O)OCC)cc2)nn(CCCC(F)(F)F)c1=O [Example 23, Ethyl 2-{4-[4-heptyl-3,5-dioxo-2-(4,4,4-trifluoro-butyl)-2,3,4,5-tetrahydro-[1,2,4]triazin-6-yloxymethyl]-phenoxy}-2-methyl-propionate] | 1 µM |
| CCOC(=O)C(C)(C)Oc1ccc(CCOc2nn(CCCC(F)(F)F)c(=O)n(C)c2=O)cc1 [Example 24, Ethyl 2-methyl-2-(4-{2-[4-methyl-3,5-dioxo-2-(4,4,4-trifluoro-butyl)-2,3,4,5-tetrahydro-[1,2,4]triazin-6-yloxy]-ethyl}-phenoxy)-propionate] | > 10 µM |
| CCCCCCCn1c(=O)c(OCCc2ccc(OC(C)(C)C(=O)OCC)cc2)nn(C)c1=O [Example 26, Ethyl 2-{4-[2-(4-heptyl-2-methyl-3,5-dioxo-2,3,4,5-tetrahydro-[1,2,4]triazin-6-yloxy)-ethyl]-phenoxy}-2-methyl-propionate] | > 10 µM |
| CCOC(=O)C(C)(C)Oc1ccc(CCCCOc2nn(CCCC(F)(F)F)c(=O)n(C)c2=O)cc1 [Example 28, Ethyl 2-methyl-2-(4-{4-[4-methyl-3,5-dioxo-2-(4,4,4-trifluoro-butyl)-2,3,4,5-tetrahydro-[1,2,4]triazin-6-yloxy]-butyl}-phenoxy)-propionate] | ~10 µM |
| CCCCCCCn1nc(OCCCc2cccc(SC(C)(C)C(=O)OCC)c2)c(=O)n(C)c1=O [Example 32, Ethyl 2-{3-[3-(2-heptyl-4-methyl-3,5-dioxo-2,3,4,5-tetrahydro-[1,2,4]triazin-6-yloxy)-propyl]-phenylsulfanyl}-2-methyl-propionate] | 1 to 3 µM |
| CCOC(=O)C(C)(C)Oc1ccc(OCCNc2nn(CCCC3CCCCC3)c(=O)n(CCCC3CCCCC3)c2=O)cc1 [Example 43, Ethyl 2-(4-{2-[2,4-bis-(3-cyclohexylpropyl)-3,5-dioxo-2,3,4,5-tetrahydro-[1,2,4]triazin-6-ylamino]-ethoxy}-phenoxy)-2-methyl-propionate] | ~3 µM |
| CCCCCCCN(CCCCOc1cccc(SC(C)(C)C(=O)OCC)c1)c1nn(C)c(=O)n(C)c1=O [Example 54, Ethyl 2-(3-{4-[(2,4-Dimethyl-3,5-dioxo-2,3,4,5-tetrahydro-[1,2,4]triazin-6-yl)-heptyl-amino]-butoxy}-phenylsulfanyl)-2-methyl-propionate] | > 10 µM |
| CCOC(=O)C(C)(C)Oc1ccccc1CCNc1nn(CCCC(F)(F)F)c(=O)n(CCCC(F)(F)F)c1=O [Example 55, Ethyl 2-(2-{2-[3,5-Dioxo-2,4-bis-(4,4,4-trifluoro-butyl)-2,3,4,5-tetrahydro-[1,2,4]triazin-6-ylamino]-ethyl}-phenoxy)-2-methyl-propionate] | > 10 µM |
| CCOC(=O)C(C)(C)Oc1cccc(CCNc2nn(C)c(=O)n(CCCC(F)(F)F)c2=O)c1 [Example 58, Ethyl 2-methyl-2-(3-{2-[2-methyl-3,5-dioxo-4-(4,4,4-trifluoro-butyl)-2,3,4,5-tetrahydro-[1,2,4]triazin-6-ylamino]-ethyl}-phenoxy)-propionate] | > 10 µM |

Further lines, results first:

| EC50 | Compound |
| --- | --- |
| > 10 µM | CCCCCCCn1c(=O)c(NCCc2cccc(OC(C)(C)C(=O)OCC)c2)nn(CCCC(F)(F)F)c1=O [Example 60, Ethyl 2-(3-{2-[4-heptyl-3,5-dioxo-2-(4,4,4-trifluoro-butyl)-2,3,4,5-tetrahydro-[1,2,4]triazin-6-ylamino]-ethyl}-phenoxy)-2-methyl-propionate] |
| ~3 µM | CCCCCCCn1c(=O)c(NCCc2cccc(SC(C)(C)C(=O)OCC)c2)nn(C)c1=O [Example 61, Ethyl 2-{3-[2-(4-heptyl-2-methyl-3,5-dioxo-2,3,4,5-tetrahydro-[1,2,4]triazin-6-ylamino)-ethyl]-phenylsulfanyl}-2-methyl-propionate] |
| > 10 µM | CCOC(=O)C(C)(C)Oc1cccc(CCCNc2nn(CCCC(F)(F)F)c(=O)n(C)c2=O)c1 [Example 62, Ethyl 2-methyl-2-(3-{3-[4-methyl-3,5-dioxo-2-(4,4,4-trifluoro-butyl)-2,3,4,5-tetrahydro-[1,2,4]triazin-6-ylamino]-propyl}-phenoxy)-propionate] |
| ~1 µM | CCOC(=O)C(C)(C)Oc1cccc(CCCNc2nn(CCCC(F)(F)F)c(=O)n(Cc3ccccc3)c2=O)c1 [Example 71, Ethyl 2-(3-{3-[4-benzyl-3,5-dioxo-2-(4,4,4-trifluoro-butyl)-2,3,4,5-tetrahydro-[1,2,4]triazin-6-ylamino]-propyl}-phenoxy)-2-methyl-propionate] |
| > 10 µM | Cn1nc(NCCCCc2cccc(OC(C)(C)C(=O)OC(C)(C)C)c2)c(=O)n(CCCC(F)(F)F)c1=O [Example 78, Tert-butyl 2-methyl-2-(3-{4-[2-methyl-3,5-dioxo-4-(4,4,4-trifluoro-butyl)-2,3,4,5-tetrahydro-[1,2,4]triazin-6-ylamino]-butyl}-phenoxy)-propionate] |
| > 10 µM | CCCCCCCn1nc(NCCCCc2cccc(OC(C)(C)C(=O)OC(C)(C)C)c2)c(=O)n(CCCC(F)(F)F)c1=O [Example 83, Tert-butyl 2-(3-{4-[2-heptyl-3,5-dioxo-4-(4,4,4-trifluoro-butyl)-2,3,4,5-tetrahydro-[1,2,4]triazin-6-ylamino]-butyl}-phenoxy)-2-methyl-propionate] |
| > 10 µM | CCOC(=O)C(C)(C)Sc1cccc(CCCCNc2nn(CCCC(F)(F)F)c(=O)n(C)c2=O)c1 [Example 93, Ethyl 2-methyl-2-(3-{4-[4-methyl-3,5-dioxo-2-(4,4,4-trifluoro-butyl)-2,3,4,5-tetrahydro-[1,2,4]triazin-6-ylamino]-butyl}-phenylsulfanyl)-propionate] |

From patent US7713971B2, “1,2,4-triazine derivatives, preparation and use thereof in human therapy” (Pierre Fabre Medicament, priority 2005, dated 2010)
